Test results reported in US9399649B2, “Compounds for treating spinal muscular atrophy” (PTC Therapeutics Inc., priority 2012, dated 2016).

Columns and labels:
[1] = tested on: full length SMN2 minigene mRNA containing SMN2 exon 7; assay: SMN2 minigene mRNA splicing RT-qPCR assay in cultured cells; assay type: cell-based, human; conditions: Homo sapiens, HEK293-H; HEK293H cells stably transfected with SMN2-A minigene, 24 hours, 7-point concentration curve; concentration giving 1.5-fold full length SMN2 mRNA vs vehicle; read-out: EC1.5x for production of full length SMN2 mRNA
Summary of the method: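 HEK293H cells stably carrying SMN2-A minigene treated 24 h (37 °C) with compound, 7-point 3.16-fold dilution, duplicates. Multiplex RT-qPCR on lysate with exon 7/luciferase primers and exon 7–8 junction probe (minigene-specific). Full-length transcript normalised to GAPDH by modified ΔΔCt, expressed relative to vehicle-treated cells.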

Smn protein = Smn protein assay in cultured cells (SMN HTRF); assay type: cell-based, human; conditions: SMA patient fibroblast cells (GM03813), 48 hours; for maximum fold (Fold) increase of Smn protein: 7-point concentration data, relative to vehicle control; for EC1.5x for Smn protein expression: 7-point concentration curve, concentration producing 1.5 times Smn protein vs DMSO vehicle
Summary of the method: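 SMA patient fibroblasts, 5,000 per well in DMEM-10% FBS, exposed 48 h at 37° C. to a 7-point, 3.16-fold compound series in triplicate. RIPA lysates read by SMN HTRF (665/620 nm, overnight at room temperature); ΔF over blank expressed as fold of vehicle.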

| SMILES | EC (1.5-fold) [1] | melting point | maximum fold (Fold) increase of Smn protein (Smn protein) | EC1.5x for Smn protein expression (Smn protein) |
| --- | --- | --- | --- | --- |
| O=c1oc(-c2nc3ccccc3s2)cc2ccc(N3CCCNCC3)cc12 [Cpd 10, 3-(1,3-benzothiazol-2-yl)-7-(1,4-diazepan-1-yl)-1H-isochromen-1-one] | 1 to 3 µM | 277 to 279 °C | * (A maximum fold increase of ≦1.2 is indicated by one star (*)) | – |
| Cc1cn2cc(-c3cc4ccc(N5C[C@@H](C)N[C@@H](C)C5)cc4c(=O)o3)nc2cn1 [Cpd 58, 7-[(3R,5S)-3,5-dimethylpiperazin-1-yl]-3-(6-methylimidazo[1,2-a]pyrazin-2-yl)-1H-isochromen-1-one] | ≤ 0.1 µM | 279 to 281 °C | ***** (a fold increase >1.65 is indicated by five stars (*****)) | **** (an EC1.5×≦0.3 nM is indicated by four stars (****)) |
| Cc1cn2cc(-c3cc4ccc(N5CCN6CCC[C@@H]6C5)cc4c(=O)o3)cc2c(C)n1 [Cpd 81, 3-(1,3-dimethylpyrrolo[1,2-a]pyrazin-7-yl)-7-[(8aR)-hexahydropyrrolo[1,2-a]pyrazin-2(1H)-yl]-1H-isochromen-1-one] | ≤ 0.1 µM | 218 to 220 °C | ***** (a fold increase >1.65 is indicated by five stars (*****)) | **** (an EC1.5×≦0.3 nM is indicated by four stars (****)) |
| CCc1nc(C)cn2cc(-c3cc4ccc(N5C[C@@H](C)N[C@@H](C)C5)cc4c(=O)o3)nc12 [Cpd 154, 7-[(3R,5S)-3,5-dimethylpiperazin-1-yl]-3-(8-ethyl-6-methylimidazo[1,2-a]pyrazin-2-yl)-1H-isochromen-1-one] | ≤ 0.1 µM | 239 to 244 °C | ***** (a fold increase >1.65 is indicated by five stars (*****)) | **** (an EC1.5×≦0.3 nM is indicated by four stars (****)) |
| C[C@H]1CN(c2ccc3cc(-c4ccccn4)oc(=O)c3c2)CCN1 [Cpd 34, 7-[(3S)-3-methylpiperazin-1-yl]-3-(pyridin-2-yl)-1H-isochromen-1-one] | 0.3 to 1 µM | 343 to 345 °C | *** (a fold increase between >1.35 and ≦1.5 is indicated by three stars (***)) | * (An EC1.5× for Smn protein expression between >3 μM and <10 μM is indicated by one star (*)) |
| Cc1cn2cc(-c3cc4ccc(N5CCN[C@@H](C)C5)cc4c(=O)o3)nc2cn1 [Cpd 57, 3-(6-methylimidazo[1,2-a]pyrazin-2-yl)-7-[(3S)-3-methylpiperazin-1-yl]-1H-isochromen-1-one] | ≤ 0.1 µM | 242 to 244 °C | ***** (a fold increase >1.65 is indicated by five stars (*****)) | **** (an EC1.5×≦0.3 nM is indicated by four stars (****)) |
| Cc1cn2cc(-c3cc4ccc(N5CCN(C6CCC6)CC5)cc4c(=O)o3)nc2c(C)n1 [Cpd 87, 7-(4-cyclobutylpiperazin-1-yl)-3-(6,8-dimethylimidazo[1,2-a]pyrazin-2-yl)-1H-isochromen-1-one] | ≤ 0.1 µM | 279 to 281 °C | **** (a fold increase between >1.5 and ≦1.65 is indicated by four stars (****)) | **** (an EC1.5×≦0.3 nM is indicated by four stars (****)) |
| Cc1cn2cc(-c3cc4ccc(N5CCN(C)[C@H](C)C5)cc4c(=O)o3)nc2c(C)n1 [Cpd 72, 3-(6,8-dimethylimidazo[1,2-a]pyrazin-2-yl)-7-[(3R)-3,4-dimethylpiperazin-1-yl]-1H-isochromen-1-one] | ≤ 0.1 µM | 252 to 254 °C | ***** (a fold increase >1.65 is indicated by five stars (*****)) | *** (an EC1.5× between >0.3 nM and ≦1 nM is indicated by three stars (***)) |
